In US11192888B2, “Antibacterial compounds” (priority 2017, dated 2021):
Values after ≈ are worked out from the molar mass of the structure shown. Read-outs that look alike come from different tables or passages of the source.

Key:
[1] = tested on: Bifidobacterium bifidum ATCC 11863; test: microbe, parasite or virus in culture; conditions: ATCC11863
[2] = tested on: Actinomyces viscosus DSM 43327; test: microbe, parasite or virus in culture; conditions: DSM43327
[3] = tested on: Clostridium difficile ATCC 43255; test: CLSI MIC, representative gut bacteria; assay type: cell-based; conditions: Clostridioides difficile, ATCC43255; Clostridium difficile ATCC 43255; read-out: MIC
Method: (§1) Comparative in vitro bacterial susceptibility to compounds 3, 9 and 10, vancomycin and metronidazole was determined using methods according to the Clinical and Laboratory Standard Institute (CLSI) approved guidelines (M7-A10, M11-A7 or M45-A2) for anaerobic and aerobic organisms.

[4] = tested on: Clostridium sordellii ATCC 9714; test: CLSI MIC, representative gut bacteria; assay type: cell-based; conditions: Paraclostridium sordellii, ATCC9714, read-out: MIC
Method: as §1

[5] = tested on: Propionibacterium acnes ATCC 6919; test: microbe, parasite or virus in culture; conditions: Cutibacterium acnes, ATCC6919
[6] = tested on: Clostridium ramosum DSM 1402; test: microbe, parasite or virus in culture; conditions: Thomasclavelia ramosa, DSM1402
[7] = tested on: Bifidobacterium breve ATCC 15700; test: microbe, parasite or virus in culture; conditions: ATCC15700
[8] = tested on: Clostridium innocuum DSM 1286; test: microbe, parasite or virus in culture; conditions: DSM1286
[9] = tested on: Bacteroides fragilis ATCC 25285; test: microbe, parasite or virus in culture; conditions: ATCC25285
[10] = tested on: Clostridium perfringens NCTC 8237; test: microbe, parasite or virus in culture
[11] = tested on: Enterococcus faecalis ATCC 29212; test: microbe, parasite or virus in culture; conditions: ATCC29212
[12] = tested on: Clostridium difficile strains (21 clinical, 7 reference); test: microbe, parasite or virus in culture; conditions: Clostridioides difficile
[13] = tested on: Corynebacterium jeikeium NCTC 11914; test: microbe, parasite or virus in culture; conditions: NCTC11914
[14] = tested on: Corynebacterium urealyticum NCTC 12011; test: microbe, parasite or virus in culture; conditions: NCTC12011
[15] = tested on: C. difficile ATCC 43255 (aka VPI 10463; ribotype 087); test: Mouse model of C. difficile-associated disease; assay type: in vivo, C57BL/6 mice
[16] = tested on: Corynebacterium striatium NCTC 764; test: microbe, parasite or virus in culture; conditions: NCTC764
[17] = tested on: Lactobacillus rhamnosus ATCC 53103; test: microbe, parasite or virus in culture; conditions: Lacticaseibacillus rhamnosus, ATCC53103
[18] = tested on: Enterococcus faecium NCTC 12204; test: microbe, parasite or virus in culture; conditions: NCTC12204
[19] = tested on: Clostridium difficile strains (21 clinical, 7 reference)
[20] = tested on: Staphylococcus aureus ATCC 29213; test: microbe, parasite or virus in culture; conditions: ATCC29213

Work on `Cc1ncc([N+](=O)[O-])n1CCO` [Metronidazole] yielded an MIC [1] of 2 µg/mL (≈ 11.7 µM), an MIC [2] of 2 µg/mL (≈ 11.7 µM) and an MIC [3] of 0.5 µg/mL (≈ 2.92 µM). The MIC [4] was 1 µg/mL (≈ 5.84 µM), the MIC [5] was greater than 64 µg/mL and the MIC [6] was 4 µg/mL (≈ 23.4 µM). For the same molecule, the MIC [7] was 4 µg/mL (≈ 23.4 µM), the MIC [8] was 0.5 µg/mL (≈ 2.92 µM) and the MIC [9] was 0.5 µg/mL (≈ 2.92 µM). The MIC [10] was 1 µg/mL (≈ 5.84 µM).
`CN[C@H](CC(C)C)C(=O)N[C@H]1C(=O)N[C@@H](CC(N)=O)C(=O)N[C@H]2C(=O)N[C@H]3C(=O)N[C@H](C(=O)N[C@H](C(=O)O)c4cc(O)cc(O)c4-c4cc3ccc4O)[C@H](O)c3ccc(c(Cl)c3)Oc3cc2cc(c3O[C@@H]2O[C@H](CO)[C@@H](O)[C@H](O)[C@H]2O[C@H]2C[C@](C)(N)[C@H](O)[C@H](C)O2)Oc2ccc(cc2Cl)[C@H]1O` [Vancomycin, reference compound] gave an MIC [11] of 2 µg/mL (≈ 1.38 µM), an MIC [12] of 0.5 µg/mL (≈ 0.345 µM) and an MIC50 [12] of 0.5 µg/mL (≈ 0.345 µM). The MIC90 [12] was 0.5 µg/mL (≈ 0.345 µM), the MIC ([12]; ATCC9689) was 0.5 µg/mL (≈ 0.345 µM) and the MIC ([12]; ATCC13366) was 0.5 µg/mL (≈ 0.345 µM). It also gave an MIC ([12]; ATCC43255) of 0.5 µg/mL (≈ 0.345 µM), an MIC ([12]; ATCC700057) of 0.5 µg/mL (≈ 0.345 µM) and an MIC ([12]; BAA1875) of 0.5 µg/mL (≈ 0.345 µM). For the same molecule, the MIC ([12]; read-out: MIC40) was 0.5 µg/mL (≈ 0.345 µM), the MIC [13] was 1 µg/mL (≈ 0.69 µM) and the MIC [14] was 1 µg/mL (≈ 0.69 µM). The “survival to the end of the study at day-21 post-infection” value ([15]; 10 mg/kg) was “survived to the end of the study”, the Mean survival ([15]; 10 mg/kg oral BD for 5 days) was 504.00 h and the MIC [16] was 0.5 µg/mL (≈ 0.345 µM). The MIC [17] was greater than 64 µg/mL, the MIC [18] was greater than 64 µg/mL and the MIC50 ([19]; 28 C. difficile strains) was 0.5 µg/mL (≈ 0.345 µM). The MIC90 ([19]; 28 C. difficile strains) was 0.5 µg/mL (≈ 0.345 µM), the MIC ([19]; C. difficile strain 630 (ribotype 012)) was 0.5 µg/mL (≈ 0.345 µM) and the MIC ([19]; C. difficile strain BI1-FDX^R) was 0.5 µg/mL (≈ 0.345 µM). For the same molecule, the MIC ([19]; C. difficile strain Clin. 1) was 0.5 µg/mL (≈ 0.345 µM), the MIC ([19]; C. difficile strain Clin. 2) was 0.5 µg/mL (≈ 0.345 µM) and the MIC ([19]; C. difficile strain Clin. 3) was 0.5 µg/mL (≈ 0.345 µM). It also gave an MIC ([19]; C. difficile strain Clin. 6) of 0.5 µg/mL (≈ 0.345 µM), an MIC ([19]; C. difficile strain Clin. 7) of 0.5 µg/mL (≈ 0.345 µM) and an MIC ([19]; C. difficile strain Clin. 8) of 0.5 µg/mL (≈ 0.345 µM). For the same molecule, the MIC ([19]; C. difficile strain Clin. 9) was 0.5 µg/mL (≈ 0.345 µM), the MIC ([19]; C. difficile strain Clin. 10) was 0.5 µg/mL (≈ 0.345 µM) and the MIC ([19]; C. difficile strain Clin. 11) was 0.5 µg/mL (≈ 0.345 µM). For the same molecule, the MIC ([19]; C. difficile strain Clin. 12) was 0.5 µg/mL (≈ 0.345 µM), the MIC ([19]; C. difficile strain Clin. 13) was 0.5 µg/mL (≈ 0.345 µM) and the MIC ([19]; C. difficile strain Clin. 14) was 0.5 µg/mL (≈ 0.345 µM). It also gave an MIC ([19]; C. difficile strain Clin. 15) of 0.5 µg/mL (≈ 0.345 µM), an MIC ([19]; C. difficile strain Clin. 16) of 0.5 µg/mL (≈ 0.345 µM) and an MIC ([19]; C. difficile strain Clin. 18) of 0.5 µg/mL (≈ 0.345 µM). For the same molecule, the MIC ([19]; C. difficile strain Clin. 20) was 0.5 µg/mL (≈ 0.345 µM), the MIC ([19]; C. difficile strain Clin. 21) was 0.5 µg/mL (≈ 0.345 µM) and the MIC ([19]; C. difficile strain Clin. 22) was 0.5 µg/mL (≈ 0.345 µM). It also gave an MIC ([19]; C. difficile strain Clin. 23) of 0.5 µg/mL (≈ 0.345 µM), an MIC ([19]; C. difficile strain Clin. 24) of 0.5 µg/mL (≈ 0.345 µM) and an MIC [20] of 1 µg/mL (≈ 0.69 µM).
